Results reported in ChEMBL document CHEMBL4342438, “Discovery of pyrazolone spirocyclohexadienone derivatives with potent antitumor activity” (Bioorg Med Chem Lett, 2020).

Experiments:
A549 = assay: Antiproliferative activity against human A549 cells assessed as reduction in cell growth measured after 72 hrs by CCK8 assay; type: functional, cell-based; settings: A549, 72 h
MDA-MB-231 [1] = assay: Antiproliferative activity against human MDA-MB-231 cells assessed as reduction in cell growth measured after 72 hrs by CCK8 assay; type: functional, cell-based; settings: MDA-MB-231, 72 h
HCT-116 = assay: Antiproliferative activity against human HCT116 cells assessed as reduction in cell growth measured after 72 hrs by CCK8 assay; type: functional, cell-based; settings: HCT-116, 72 h
MDA-MB-231 [2] = assay: Induction of cell cycle arrest in human MDA-MB-231 cells assessed as accumulation at G2 phase at 2 uM measured after 24 hrs by flow cytometry analysis (reference value: 23.69%); type: functional
MDA-MB-231 [3] = assay: Induction of cell cycle arrest in human MDA-MB-231 cells assessed as accumulation at G1 phase at 2 uM measured after 24 hrs by flow cytometry analysis (reference value: 43.68%); type: functional
MDA-MB-231 [4] = assay: Induction of apoptosis in human MDA-MB-231 cells assessed as increase in apoptotic cells measured after 48 hrs by annexinV-FITC/propidium iodide staining based flow cytometry analysis; type: functional, cell-based
MDA-MB-231 [5] = assay: Induction of apoptosis in human MDA-MB-231 cells assessed as apoptotic cells at 10 uM measured after 48 hrs by annexinV-FITC/propidium iodide staining based flow cytometry analysis (reference value: 5.62%); type: functional
MDA-MB-231 [6] = assay: Induction of apoptosis in human MDA-MB-231 cells assessed as apoptotic cells at 5 uM measured after 48 hrs by annexinV-FITC/propidium iodide staining based flow cytometry analysis (reference value: 5.62%); type: functional
MDA-MB-231 [7] = assay: Induction of cell cycle arrest in human MDA-MB-231 cells assessed as accumulation at G2 phase at 1 uM measured after 24 hrs by flow cytometry analysis (reference value: 23.69%); type: functional
MDA-MB-231 [8] = assay: Induction of cell cycle arrest in human MDA-MB-231 cells assessed as accumulation at G1 phase at 1 uM measured after 24 hrs by flow cytometry analysis (reference value: 43.68%); type: functional
MDA-MB-231 [9] = assay: Induction of cell cycle arrest in human MDA-MB-231 cells assessed as accumulation at S phase at 1 uM measured after 24 hrs by flow cytometry analysis (reference value: 32.63%); type: functional
MDA-MB-231 [10] = assay: Induction of cell cycle arrest in human MDA-MB-231 cells assessed as accumulation at S phase at 2 uM measured after 24 hrs by flow cytometry analysis (reference value: 32.63%); type: functional
MDA-MB-231 [11] = assay: Induction of apoptosis in human MDA-MB-231 cells assessed as apoptotic cells at 2.5 uM measured after 48 hrs by annexinV-FITC/propidium iodide staining based flow cytometry analysis (reference value: 5.62%); type: functional
HUVEC = assay: Cytotoxicity against HUVEC assessed as inhibition of cell growth measured after 72 hrs by CCK8 assay; type: cell-based; settings: Homo sapiens

SMILES | IC50 (A549) [µM] | IC50 (MDA-MB-231 [1]) [µM] | IC50 (HCT-116) [µM] | further results
CC1=NN(c2cccc(Cl)c2)C(=O)C12C=CC(=O)C=C2c1cccc(C)c1 (stereo unspecified) | 20.1 | 22.3 | 3.74 | 
CC1=NN(c2ccccc2)C(=O)C12C=CC(=O)C=C2c1ccccc1 (stereo unspecified) | 16.5 | 27.4 | 17.8 | 
CC1=NN(c2ccc(Br)cc2)C(=O)C12C=CC(=O)C=C2c1ccccc1 (stereo unspecified) | > 100 | > 100 | > 100 | 
CC1=NN(c2ccccc2)C(=O)C12C=CC(=O)C=C2c1ccc(C)cc1 (stereo unspecified) | 19.3 | 91.9 | 27.1 | 
CC1=NN(c2ccc(Br)cc2)C(=O)C12C=CC(=O)C=C2c1cccc(C)c1 (stereo unspecified) | 45.4 | 2.89 | > 100 | 
CC1=NN(c2cccc(Cl)c2)C(=O)C12C=CC(=O)C=C2c1ccccc1 (stereo unspecified) | 18.8 | 30.1 | 7 | 
CC1=NN(c2ccc(Br)cc2)C(=O)C12C=CC(=O)C=C2c1ccc(C)cc1 (stereo unspecified) | 27.4 | 15.9 | 10.6 | 
CC1=NN(c2ccccc2)C(=O)C12C=CC(=O)C=C2c1cccc(C)c1 (stereo unspecified) | 16.5 | 85.8 | > 100 | 
CC1=NN(c2ccc(Cl)cc2)C(=O)C12C=CC(=O)C=C2c1ccc(C)cc1 (stereo unspecified) | 33.4 | 14.3 | 10.3 | 
CC1=NN(c2ccc(C)cc2)C(=O)C12C=CC(=O)C=C2c1ccccc1 (stereo unspecified) | 46.3 | 46.6 | 16.5 | 
CC1=NN(c2ccc(Cl)cc2)C(=O)C12C=CC(=O)C=C2c1cccc(C)c1 (stereo unspecified) | 38.4 | 26.9 | 13.3 | 
CC1=NN(c2ccc(C)cc2)C(=O)C12C=CC(=O)C=C2c1ccc(C)cc1 (stereo unspecified) | 37 | 5.11 | 9.71 | 
CC1=NN(c2ccc(Cl)cc2)C(=O)C12C=CC(=O)C=C2c1ccccc1 (stereo unspecified) | > 100 | > 100 | > 100 | 
CC1=NN(c2ccc(C)cc2)C(=O)C12C=CC(=O)C=C2c1cccc(C)c1 (stereo unspecified) | 22.5 | 19.4 | 8.34 | 
CC1=NN(c2cccc(Cl)c2)C(=O)C12C=CC(=O)C=C2c1ccc(C)cc1 (stereo unspecified) | 9.05 | 3.82 | 2.4 to 2.89 | Activity (MDA-MB-231 [2]): 17.5%; Activity (MDA-MB-231 [3]): 68.23%; Activity (MDA-MB-231 [4]): Dose-dependent effect; Activity (MDA-MB-231 [5]): 47.23%; Activity (MDA-MB-231 [6]): 12.2%; Activity (MDA-MB-231 [7]): 21.23%; Activity (MDA-MB-231 [8]): 45.59 - 49.59%; Activity (MDA-MB-231 [9]): 29.18%; Activity (MDA-MB-231 [10]): 14.27%; Activity (MDA-MB-231 [11]): 9.7%; IC50 (HUVEC): 5.41 µM
